# Columns and labels:
# topo IIα = biological target: T1, topo IIα (Homo sapiens, UniProt P11388); assay: cell-free relaxation assay of supercoiled pHOT1 plasmid DNA with purified human topo II, agarose gel; assay type: biochemical
# T1 construct: gene TOP2A
# topo I = biological target: T2, topo I (Homo sapiens, UniProt P11387); assay: cell-free relaxation assay of supercoiled pHOT1 plasmid DNA with purified human topo I, agarose gel; assay type: biochemical
# T2 construct: gene TOP1
# T2 sequence (P11387 2-765): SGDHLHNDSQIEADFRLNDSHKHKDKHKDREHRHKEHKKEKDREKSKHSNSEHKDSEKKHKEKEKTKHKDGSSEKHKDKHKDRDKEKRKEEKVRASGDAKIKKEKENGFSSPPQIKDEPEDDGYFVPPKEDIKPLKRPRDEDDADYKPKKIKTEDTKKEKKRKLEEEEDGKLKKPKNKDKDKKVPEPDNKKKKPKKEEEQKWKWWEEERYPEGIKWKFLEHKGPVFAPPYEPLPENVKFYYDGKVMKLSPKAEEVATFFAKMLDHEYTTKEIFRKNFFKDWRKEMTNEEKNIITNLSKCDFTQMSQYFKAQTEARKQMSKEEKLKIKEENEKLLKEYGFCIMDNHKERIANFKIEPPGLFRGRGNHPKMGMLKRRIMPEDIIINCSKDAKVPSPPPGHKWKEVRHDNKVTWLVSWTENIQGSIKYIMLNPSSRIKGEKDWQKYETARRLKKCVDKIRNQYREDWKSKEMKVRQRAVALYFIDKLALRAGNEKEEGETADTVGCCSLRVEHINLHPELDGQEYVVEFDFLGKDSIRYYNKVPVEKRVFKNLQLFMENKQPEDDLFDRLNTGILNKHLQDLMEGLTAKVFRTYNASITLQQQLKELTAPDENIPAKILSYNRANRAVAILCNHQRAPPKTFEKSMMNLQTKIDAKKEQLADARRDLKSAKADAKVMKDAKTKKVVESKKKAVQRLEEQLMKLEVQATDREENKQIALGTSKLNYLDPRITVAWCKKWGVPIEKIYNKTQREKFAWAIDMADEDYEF
# T1 sequence (P11388 whole entry): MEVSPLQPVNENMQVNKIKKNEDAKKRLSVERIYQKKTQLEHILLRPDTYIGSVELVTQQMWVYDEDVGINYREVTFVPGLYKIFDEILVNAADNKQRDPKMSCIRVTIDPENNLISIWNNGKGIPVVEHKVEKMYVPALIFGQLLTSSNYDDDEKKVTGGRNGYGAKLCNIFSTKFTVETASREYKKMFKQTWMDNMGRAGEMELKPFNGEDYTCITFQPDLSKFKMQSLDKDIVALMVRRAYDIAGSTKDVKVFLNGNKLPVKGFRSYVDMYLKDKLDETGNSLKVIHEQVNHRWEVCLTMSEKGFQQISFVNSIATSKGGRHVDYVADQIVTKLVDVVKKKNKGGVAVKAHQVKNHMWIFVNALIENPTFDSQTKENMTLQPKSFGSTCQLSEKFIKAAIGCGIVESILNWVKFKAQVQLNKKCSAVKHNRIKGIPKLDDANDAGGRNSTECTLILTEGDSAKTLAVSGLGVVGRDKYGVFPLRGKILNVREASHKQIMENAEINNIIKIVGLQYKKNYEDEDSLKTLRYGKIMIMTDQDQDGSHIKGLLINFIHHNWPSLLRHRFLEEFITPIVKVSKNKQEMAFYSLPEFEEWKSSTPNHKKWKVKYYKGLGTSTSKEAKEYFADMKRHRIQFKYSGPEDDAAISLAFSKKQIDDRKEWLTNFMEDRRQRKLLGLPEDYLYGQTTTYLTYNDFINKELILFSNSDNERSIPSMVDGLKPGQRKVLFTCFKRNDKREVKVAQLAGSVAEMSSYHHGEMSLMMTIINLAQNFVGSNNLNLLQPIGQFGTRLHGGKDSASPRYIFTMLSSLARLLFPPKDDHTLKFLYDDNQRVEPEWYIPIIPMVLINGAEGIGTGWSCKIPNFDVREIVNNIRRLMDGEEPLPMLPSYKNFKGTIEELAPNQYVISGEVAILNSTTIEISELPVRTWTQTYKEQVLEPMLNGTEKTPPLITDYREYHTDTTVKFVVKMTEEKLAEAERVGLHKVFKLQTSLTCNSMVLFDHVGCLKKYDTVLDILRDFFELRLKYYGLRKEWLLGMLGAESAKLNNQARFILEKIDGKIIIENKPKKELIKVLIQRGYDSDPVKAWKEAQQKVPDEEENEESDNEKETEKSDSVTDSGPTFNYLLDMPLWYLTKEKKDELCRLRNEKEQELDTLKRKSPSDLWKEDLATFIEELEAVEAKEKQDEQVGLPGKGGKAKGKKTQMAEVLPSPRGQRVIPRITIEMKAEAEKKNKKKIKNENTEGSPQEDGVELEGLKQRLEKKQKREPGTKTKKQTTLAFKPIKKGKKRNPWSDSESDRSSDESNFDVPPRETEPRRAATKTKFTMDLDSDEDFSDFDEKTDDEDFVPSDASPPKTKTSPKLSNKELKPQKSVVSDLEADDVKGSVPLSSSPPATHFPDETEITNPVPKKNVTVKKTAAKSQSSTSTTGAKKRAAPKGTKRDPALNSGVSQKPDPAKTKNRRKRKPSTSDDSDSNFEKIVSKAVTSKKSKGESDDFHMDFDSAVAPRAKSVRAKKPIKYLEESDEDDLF
smiles,measurement,setting,value
"C[C@@]12CCC(=O)c3coc(c31)C(=O)c1cc3c(cc12)C(=O)C=CC3=O [HQ, halenaquinone]",IC50,topo IIα,16.6 nM
same,IC50,topo I,3580 nM

# From publication PMC4446623, “Tackling the Cytotoxic Effect of a Marine Polycyclic Quinone-Type Metabolite: Halenaquinone Induces Molt 4 Cells Apoptosis via Oxidative Stress Combined with the Inhibition of HDAC and Topoisomerase Activities” (Marine Drugs, 2015)
